Reference: paper PMC4718634, “Murine GPRC6A Mediates Cellular Responses to L-Amino Acids, but Not Osteocalcin Variants” (PLoS ONE, 2016)
Entries after “also recorded” stand apart in the source; their conditions may differ.

How the values were obtained:
Assay type in all cases: cell-based, murine
MIN6 cells = assay: Insulin release from MIN6 cells
Summary of the method: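 After 72 h culture and 2 h glucose-free deprivation, cells exposed to compound for 2 h at 37°C in Krebs buffer pH 7.4 with 2 mM or 16.7 mM glucose. Secreted insulin measured by ELISA, normalised to vehicle at matching glucose; LogEC50 from three- or four-parameter logistic fit.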

β-TC6 cells = assay: Insulin release from β-TC6 cells; conditions: S3 Fig A
Description: MIN6 or βTC-6 cells were seeded in 24-well plates at 170,000 cells per well in DMEM (containing 4.5g/L glucose, 10 mM HEPES, 100 U/ml penicillin, 100 μg/ml streptomycin and 15% de-complemented FBS) and incubated at 37°C / 5% CO2 for 72 h. Cells were then washed with 500 μl PBS and incubated in 500 μl deprivation media (DMEM with zero glucose, 10 mM HEPES, 1 mM Na-pyruvate, 100 U/ml penicillin, 100 μg/ml streptomycin, 15% de-complemented FBS) for 2 h at 37°C. Media was aspirated and after washing with 500 μl PBS, cells were treated with 250 μl of Krebs buffer (250 mM NaCl, 5.9 mM KCl, 1.2 mM MgCl2, 1.3 mM CaCl2, 25 mM HEPES, 0.1% BSA (w/v), and 2 mM or 16.7 mM glucose; pH 7.4) in the presence or absence of test compound. After incubation for 2 h at 37°C, the assay was terminated by placing the plates on ice and supernatants were transferred to a 96-well plate in preparation for insulin ELISA (Alpco) following manufacturer’s instructions. The cell monolayer was washed twice with 500 μl of PBS and then lysed using 250 μl of 1 N NaOH prior to protein measurement by the method of Bradford (1976).
Concentration-response data were analysed using a three or four parameter logistic function (Motulsky & Christopoulos, 2004) to generate estimates of agonist potency (LogEC50). Data for all HEK293 assays represent the mean ± SEM of at least three independent experiments (except cell impedance, n = 2). For GLP-1 release, the data represent mean ± SEM of three to five independent experiments (except for OCN, wash; n = 2). For insulin release assays, data represent the mean ± SEM of three independent experiments (except for islet studies; n = 2). Insulin release data were normalised to the response to vehicle in either low or high [glucose]. Statistical analysis for GLP-1 release data were performed by one-way ANOVA, followed by Sidak’s multiple comparisons test (treating wash / no wash datasets separately). Statistical analyses for insulin release data were performed by two-way ANOVA (with [glucose] and drug treatment as group variables), followed by Sidak’s multiple comparisons test. Where only high [glucose] groups were evaluated, statistical analysis was by one-way ANOVA followed by Sidak’s multiple comparisons test.

GLUTag cells = assay: GLP-1 release from GLUTag cells; conditions: for GLP-1 release (summary): S1 Table
Summary of the method: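 Matrigel-grown cells, where indicated pre-washed in Krebs-HEPES pH 7.2 with 5.5 mM glucose and 300 μM vildagliptin, were exposed to compound for 2 h at 37 °C. Secreted GLP-1 was measured by fluorescent ELISA (355/460 nm) and normalised to Bradford protein. LogEC50 values came from 3- or 4-parameter logistic fits.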

Compound | glucose-sensitive insulin secretion (MIN6 cells; L-ornithine 20 mM, 16.7 mM glucose, P < 0.01 vs Vehicle, 2 h, ELISA, Fig 6B) | glucose-sensitive insulin secretion, L-ornithine (β-TC6 cells; L-ornithine 20 mM) | GLP-1 release (GLUTag cells; L-ornithine 20 mM, 2 h, 37°C, cells washed, **P < 0.01 vs Vehicle, ELISA, Fig 6A) | GLP-1 release (summary) (GLUTag cells) | insulin secretion, OCN (MIN6 cells; mouse OCN 0.03–30 ng/mL, 0.03–100 ng/mL (Fig 6B legend), low and high glucose) | insulin secretion, OCN (β-TC6 cells; OCN 0.03–100 ng/ml, both glucose concentrations) | GLP-1 release, OCN (GLUTag cells; 0.01–10 ng/ml, with or without cell washing, 2 h, Fig 6A)
NCCC[C@H](N)C(=O)O [L-ornithine] | significantly increased glucose-sensitive insulin secretion; also recorded: could be increased by L-ornithine | no significant effect | significantly increases GLP-1 release; also recorded: L-ornithine stimulated GLP-1 release | response |  |  | 
OCN: osteoblast-derived peptide, osteocalcin; variant not specified at the place (YLYQWLGAPVPYPDPLEPRREVCELNPDCDELADHIGFQEAYRRFYGPV; UniProt P02818 52-100, looked up) |  |  |  | No response | failed to induce GSIS | no effect on insulin release; also recorded: failed to induce GSIS | failed to increase GLP-1 release
